The text below walks through data of US11324829B2, “Antiseptic agent comprising meglumine or salt thereof” (priority 2016, dated 2022).

The experiment has as its system E. coli, P. aeruginosa, S. aureus, C. albicans, A. brasiliensis. Kind of experiment: Evaluation against category IA standard, Preservatives-Effectiveness Tests, Japanese Pharmacopoeia 16th edition (all 5 strains). In kind it is cell-based. Conditions: summary of Tables 1 to 3, against each of the strains. Here is the method:
The following strains were used as inoculum strains.
A test sample of each formulation was inoculated with an inoculum microorganism liquid so that the concentration of the microorganism liquid in the test sample was 10^5 to 10^6 cells/mL (for each of the 5 strains). Specifically, an inoculum microorganism liquid was prepared for each strain at 10^7 to 10^8 cfu/mL, and inoculated into a test sample of each of Examples 1 to 11 and Comparative Example 1, and uniformly mixed to obtain a sample, so that the inoculum microorganism liquid was at 10^5 to 10^6 cfu/mL. These samples were stored at 20 to 25° C. under a light shielding condition. At sampling points (after 14 days or 28 days), 1 mL of each sample was withdrawn with a micropipette to measure a viable cell count. […]
The test results in Tables 1 to 3 are each shown as the common logarithm value of the ratio (B/A) of a cell count (B) at the time of inoculation to a cell count (A) of viable cells. For example, the value “1” means that the measured viable cell count is as low as 10% of the inoculum cell count. Further, the formulations were evaluated whether they satisfied the standard of “category IA” according to the informative “Preservatives-Effectiveness Tests” defined in The Japanese Pharmacopoeia, 16th edition.

As to `CNC[C@H](O)[C@@H](O)[C@H](O)[C@H](O)CO` [meglumine, Meglumine], the “Antiseptic effect (in words)” value is “alone has an antiseptic effect”.
